Test results as given in patent US20050159427A1, “N-acylsulfonamide apoptosis promoters” (priority 2003, published 2005).

Test system: A549 human non-small cell lung carcinoma cells
Assay: Paclitaxel combination on A549 cells
Type: cell-based
Settings: stated after the paclitaxel combination results on A549 and PC-3 cells

Structure (SMILES): CN(C)CC[C@@H](CSc1ccccc1)Nc1ccc(S(=O)(=O)NC(=O)c2ccc(N3CCN(Cc4ccccc4-c4ccc(Cl)cc4)CC3)cc2)cc1[N+](=O)[O-] [enantiomer of EXAMPLE 2, N-(4-(4-((4′-chloro(1,1′-biphenyl)-2-yl)methyl)piperazin-1-yl)benzoyl)-4-(((1S)-3-(dimethylamino)-1-((phenylsulfanyl)methyl)propyl)amino)-3-nitrobenzenesulfonamide]
- efficacy relative to EXAMPLE 2: less efficacious
